The values below come from patent US20060008800A1, “Unc-13 in the modulation of neurotransmission and secretion events” (priority 2002, published 2006).

Experiment [1] deals with Munc13-1 deficient hippocampal neurons. The experiment is described as follows: EPSC augmentation following high frequency action potential trains in Munc13-1 deficient, Munc13-2 dependent neurons. It counts as cell-based, mouse.
The subject of experiment [2] is hippocampal neurons. The experiment can be described thus: β-phorbol ester induced potentiation of evoked synaptic currents in autaptic neuron cultures (patch clamp). The settings on record: for effect of PKC inhibitor on β-PE induced increase/potentiation of evoked EPSCs: 3 μM inhibitor, 1 μM PDBU. The class given is cell-based, mouse. As to the method:
(§1) Microisland culture preparation was performed according to Bekkers and Stevens (1991). The extracellular medium contained (mM): NaCl, 167; KCl, 2.4; HEPES, 10; glucose, 10; CaCl2, 4; MgCl2, 4 (340 mOsm, pH 7.3). Solutions were applied and recordings were performed as described in Rosenmund (1995). To examine synaptically activated currents, experiments were performed using recurrent synapses (autapses) or only single autaptic neuroeses on microisland cultures at room temperature (=24° C.). Pipette solutions included (mM): KCl, 120, or K-Gluconate, 125; HEPES, 10; EGTA, 1; MgCl2, 4.6; Na4ATP, 4; Creatinephosphate, 15; creatinephosphokinase 50 U/ml (320 mOsm, pH 7.3). Wild type and Munc13-1 deficient glutamatergic hippocampal neurons were used to study the characteristics of Munc13-1 and Munc13-1 independent synapses. For these purposes, individual neurons grown on microisland beds of glial cells (Bekkers, 1991) were employed. In this autaptic culture system, where isolated nerve cells make multiple synaptic contacts, so called autapses, with their own dendritic trees, spontaneous transmitter release, release of the readily releasable vesicle pool induced by hypertonic solutions, and action potential evoked release arise from the same synapse population and can be measured readily with patch clamp techniques. Autaptic responses were obtained after brief (1-2 ms) somatic depolarization. This induces an unclamped action potential that is followed by a postsynaptic response with a delay of 2-4 ms. Excitatory, glutamatergic and inhibitory, GABAergic synaptic currents were distinguished by their characteristic pharmacological and kinetic properties. Excitatory glutamatergic cells were mainly characterized because the differential equipment of presynaptic terminals formed by the same axon with Munc13 priming factors is not apparent in GABAergic neurons.
Design of and infection with Semliki Forest Virus was done according to published procedures (Betz, 2001; Ashery, 2000). Cells were measured 22-26 h after infection.
Routinely, cells from Munc13-1^H567K/Munc13-1^H567K mutants were analyzed 12-20 day after plating and compared to wild type control cells obtained from littermates. In some experiments we employed Munc13-1/Munc13-2 double deficient neurons as model cells to study the characteristics of the Munc13-1^H567K variant in comparison to wild type Munc13-1 following overexpression using the Semliki-Forest-Virus system. In contrast to Munc13-1 deficient glutamatergic hippocampal neurons, which still show measurable glutamate release (10% of wild type levels; Augustin, 1999b), double homozygous Munc13-1/Munc13-2 deletion mutant neurons are characterized by a complete lack of spontaneous and evoked transmitter release but can be rescued by reintroduction of Munc13 proteins. This rescue approach was persued in Munc13-1/Munc13-2 double mutant neurons instead of breeding the Munc13-1^H567K/Munc 3-1^H567K mutation into the Munc13-2 deletion mutant background because it was much faster and allowed the direct comparison of additional mutant (Betz, 2001) and wild type Munc13-1 variants in the same cultures. Autaptic responses were obtained after brief (1-2 ms) somatic depolarization. This induces an unclamped action potential that is followed by a postsynaptic response with a delay of 2-4 ms. Excitatory, glutamatergic synaptic currents were identified by their characteristic pharmacological and kinetic properties.
For orientation: The patch-clamp technique gives a direct electrical read-out from membranes.

The test system of experiment [3] is hippocampal neurons. The experiment is described as follows: α-latrotoxin induced mEPSC/mIPSC activity. The class given is cell-based, mouse. The method, then:
as §1
Given that neither action potentials nor hypertonic stimuli successfully evoked synaptic transmission and no mPSCs were detectable in Munc13-1/2 double deficient cells, it is possible that postsynaptic development is impaired in mutant cells. To test this directly, the spider toxin α-latrotoxin was used which allows to partially circumvent the need for priming factors in vesicular release (Augustin, 1999b). […] The average amplitude of these events was 22.7±2.4 pA (FIG. 5B). Both, mEPSC frequency and amplitude values are similar to wild type values (not shown).

Experiment [4] addresses T1, Calmodulin (Rattus norvegicus, UniProt P0DP29).
T1 construct: from tissue; host or cells: rat brain synaptosomes, extracted with 1% Igepal
The experiment is described as follows: Cosedimentation of Calmodulin from rat brain synaptosome extract with GST fusion proteins. It counts as binding. As to conditions: for Calmodulin binding in cosedimentation: 15 μg fusion protein, 3 mM Ca. As to the method: GST fusion proteins containing the Calmodulin binding sites of rat Munc13-1 and ubMunc13-2 as well as GST alone were expressed in bacteria, purified and adsorbed onto glutathione beads in equal amounts for subsequent use in cosedimentation assays with rat brain synaptosome extract. Proteins that bound to the immobilized GST fusion proteins were analyzed by SDS-PAGE and immunoblotting with a specific Calmodulin antibody. Calmodulin binds specifically to wt GST-Munc13-1 (445-567) and GST-ubMunc13-2 (372-494). Calmodulin binding is completely abolished by the point mutations in the conserved tryptophanes (Position 1 in the alignment figure x).
Such a tool is a point mutation in a Munc13 protein that abolishes Calmodulin binding. On basis of the evolutionarily conservation of the tryptophane residues (FIG. 22), and since these hydrophobic residues make contact to Calmodulin, we created expression constructs that contain W464R mutation in case of Munc13-1 and a W387R mutation in case of ubMunc13-2. The effect of these mutations on Calmodulin binding was determined in cosedimentation experiments (FIG. 24). GST-tagged fragments of Munc13-1 (aa 445-567) or ubMunc13-2 (aa 372494) were expressed in bacteria and purified according to standard protocols. 15 μg of each expressed fusion protein were used to test for Calmodulin binding from 2 ml of a rat brain synaptosome extract. Rat brain synaptosomes were extracted with Igepal (1%) at a protein concentration of 2 mg/ml in a buffer containing Tris 50 mM pH 8, NaCl 150 mM, EGTA 1 mM and a cocktail of protease inhibitors. The cosedimentation experiment was performed as described prebviously (Betz, Neuron 30 […] 183-196).

The target of experiment [5] is Calmodulin (Homo sapiens, UniProt P0DP23). The experiment is described as follows: Tryptophane fluorescence emission of peptides as reporter for Calmodulin binding. The settings on record: 10 μM peptide; for binding of Ca^2+/Calmodulin: excess calcium. The method, then: FIG. 23: Tryptophane fluorescence emission spectra of peptides reflecting the Calmodulin binding site of rat Munc13-1 and ubMunc13-2. 10 μM of each peptide were measured in NH4Acetate 0.25 M, 1 mM EGTA. Excitation was at 290 nm.
The Excitation shutter was adjusted to 1 nm bandwith, the emission shutter to 8 nm bandwidth. Pathlenght was 3 mm. All measurements were carried out at room temperature. The exact sequences of each peptide are given in the text. […] In case of the Munc13-1 peptide, Calcium independent binding is also observed, while the binding of Munc13-2 peptides strictly requires Ca2+ for binding.
The tryptophane fluorescence of the peptides was used as a reporter for Calmodulin binding in an experimental setup that was essentially identical to the experiments described elsewhere. (O'Neil et al.). Excitation of 10 μM solutions of the peptides in 0.25 M NH4Acetate pH 8 and 1 mM EGTA at 290 nm (bandwidth 1 nm) produced a maximum in the emission (bandwidth 8 nm) of both peptides at 355 nm. […] The same experiment was performed with the peptide derived of ubMunc13-2. […] In view of the evolutionarily conservation of the motif, other members of the protein family are likely to be Calmodulin targets, too.

[6] abbreviates: cocktail of phosphatase inhibitors: cypermethrin 1 nM, calyculin A 10 μM, cyclosporine A 1 μM.
Setting [7] is: 1 nM, Munc13-1/2 double deficient neurons.

“Also recorded” adds a separate entry of the source.

For the compound `CC(=O)OCOC(=O)CN(CCOCCOCCN(CC(=O)OCOC(C)=O)CC(=O)OCOC(C)=O)CC(=O)OCOC(C)=O` [EGTA-AM], in experiment [1] (10 Hz train, pretreatment 50 μM, 20 min), the EPSC augmentation is 2.0±0.4 fold. Also, in experiment [1] (40 Hz train, pretreatment 50 μM, 20 min), the “maximal EPSC augmentation” value is recorded as 11.0±1.5 fold. For the same compound, the “augmentation in frequency-augmentation profile” value in experiment [1] (frequencies below 40 Hz, pretreatment 50 μM, 20 min) is “strongly reduced”.
Regarding `COc1ccc2c(c1)c(C1=C(c3c[nH]c4ccccc34)C(=O)NC1=O)cn2CCCN(C)C` [GÖ 6983], in the experiment with hippocampal neurons [2] (1 μM PDBU after preincubation for 2 min and in the presence of 3 μM GÖ 6983, wild type neurons), the “β-PE induced increase in evoked EPSCs” value was 150±6 % of baseline values. Further, the “effect of PKC inhibitor on β-PE induced increase/potentiation of evoked EPSCs” value in the experiment with hippocampal neurons [2] (wild type neurons) is on record as “had no effect”.
For `NS(=O)(=O)c1cccc2c1c([N+](=O)[O-])cc1nc(O)c(O)nc12` [NBQX], in the experiment with hippocampal neurons [3] (Munc13-2 deficient and Munc13-1/2 double deficient neurons), the “effect on α-latrotoxin induced mEPSC signals” value is given as “blocked”.
Take `CN(C)CCCn1cc(C2=C(c3c[nH]c4ccccc34)C(=O)NC2=O)c2ccccc21` [bisindolylmaleimide I]: the “potentiation of evoked EPSCs by 1 μM PDBU after bisindolylmaleimide I pretreatment” value in the experiment with hippocampal neurons [2] turned out to be 73±8.3%. Further, the “effect of PKC inhibitor on β-PE induced increase/potentiation of evoked EPSCs” value with hippocampal neurons [2] (wild type neurons) is listed as “does not prevent”. In addition, the “reduction of evoked EPSC responses (rundown)” value in the experiment on hippocampal neurons [2] (3 μM, four minute application period, wild type neurons) was found to be 41±11%.
Consider `COC[C@@H]([C@H](O)[C@H](O)C(=O)NCC[C@H](C)c1nc(/C=C/C[C@@H]2O[C@]3(C[C@@H](O)[C@@H]2C)O[C@H]([C@H](C[C@H](O)[C@H](C)[C@H](O)[C@H](C)/C=C(C)/C(C)=C/C=C/C(C)=C\C#N)OC)[C@H](OP(=O)(O)O)C3(C)C)co1)N(C)C` [calyculin A], for which the effect on augmentation entry in experiment [1] (setting [6]) is recorded as “did not alter augmentation”; in experiment [1] (cocktail of phosphatase inhibitors: cypermethrin 1 nM, calyculin A 10 μM, cyclosporine A 1 μM, listed as calyculinA) it was “ineffective in blocking augmentation”.
As for `CC1(C)C(C=C(Cl)Cl)C1C(=O)OC(C#N)c1cccc(Oc2ccccc2)c1` (stereo not drawn) [cypermethrin], the effect on augmentation result in experiment [1] (setting [6]) is reported as “ineffective in blocking augmentation; also recorded: did not alter augmentation”.
On to `C/C1=C/C(=O)O[C@@H]2C[C@@H](CC[C@H](C)/C=C\CC1)O[C@@](O)([C@@H]1CSC(=O)N1)C2` [latrunculin B], for which the effect on augmentation result in experiment [1] (10 μM) is reported as “ineffective in blocking augmentation; also recorded: failed to affect augmentation”.
As to `C=C1[C@@H](O)[C@@H]2O[C@]3(CC[C@H](/C=C/[C@@H](C)[C@@H]4CC(C)=C[C@@]5(O[C@H](C[C@@](C)(O)C(=O)O)CC[C@H]5O)O4)O3)CC[C@H]2O[C@@H]1[C@@H](O)C[C@H](C)[C@H]1O[C@@]2(CCCCO2)CC[C@H]1C` [okadaic acid], the effect on augmentation result in experiment [1] (1 μM, alone) is listed as “unable to block augmentation; also recorded: did not alter augmentation”.
On to `CN[C@@H]1C[C@H]2O[C@@](C)([C@@H]1OC)n1c3ccccc3c3c4c(c5c6ccccc6n2c5c31)C(=O)NC4` [staurosporine], for which, in experiment [1] (100 nM), the effect on augmentation entry was “failed to suppress augmentation”.
“GSTMunc13-1 (aa 445-567): GST-tagged fragment of rat Munc13-1 (aa 445-567) containing the Calmodulin binding site, expressed in bacteria”: in the experiment with Calmodulin [4], the “calcium dependence of Calmodulin binding in cosedimentation” value is recorded as “partially independent of Ca^2+” and the “Calmodulin binding in cosedimentation” value is reported as “robustly bound”.
Regarding “GSTubMunc13-2 (aa 372-494): GST-tagged fragment of rat ubMunc13-2 (aa 372-494) containing the Calmodulin binding site, expressed in bacteria”, the “Calmodulin binding in cosedimentation” value with Calmodulin [4] is “robustly bound”.
In the case of “cqarahwfravtkvrlqlqeis (CQARAHWFRAVTKVRLQLQEIS) [peptide derived of ubMunc13-2]”, in the experiment with Calmodulin [5], the “calcium dependence of Calmodulin binding” value is recorded as “absolutely dependent on the presence of calcium” and the “binding of Ca^2+/Calmodulin” value was “bound”.
For “crakanwlrafnkvrmqlqear (CRAKANWLRAFNKVRMQLQEAR) [Munc13-1 derived peptide]”, in the experiment with Calmodulin [5], the “calcium dependence of Calmodulin binding” value is given as “partially Ca2+ independent binding” and the “binding of Ca^2+/Calmodulin” value is recorded as “tighter binding”. The “emission spectrum change on addition of Apocalmodulin (Calcium-free Calmodulin)” value in the experiment with Calmodulin [5] (equimolar Apocalmodulin, 1 mM EGTA) was “pronounced blue shift and slight intensity increase”.
In the experiment on hippocampal neurons [3] (setting [7]), α-latrotoxin displayed a mEPSC amplitude of 25.6±2.6 pA and a mEPSC-like event frequency of 0.074±0.024 Hz. Moreover, the “average mEPSC amplitude” value with hippocampal neurons [3] (1 nM, Munc13-2 single mutant control neurons) amounted to 22.7±2.4 pA. The same compound returned a mEPSC frequency with hippocampal neurons [3] (five minutes following 60 s application of 1 nM, Munc13-2 single mutant control neurons) of 23.4±3.9 Hz.
